From patent US6133292A, “Diaryl-5-alkyl-5-methyl-2-(5H)-furanones as selective cyclooxygenase-2-inhibitors” (Merck Frosst Canada & Co., priority 1998, dated 2000)
pIC50: −log10 of the molar value.

Legend:
COX-1 [1] = target: T1, COX-1 (Homo sapiens, UniProt P23219); test: Assay of COX-1 activity from U937 cell microsomes; format: biochemical; design: Assay of COX-1 Activity from U937 cell microsomes; endogenous in cells; host or cells: U937 cells, 100,000 x g microsomal fraction; details: read-out: U937 Cox-1 (IC50, inhibition of PGE2 production)
T1 sequence (P23219 24-599): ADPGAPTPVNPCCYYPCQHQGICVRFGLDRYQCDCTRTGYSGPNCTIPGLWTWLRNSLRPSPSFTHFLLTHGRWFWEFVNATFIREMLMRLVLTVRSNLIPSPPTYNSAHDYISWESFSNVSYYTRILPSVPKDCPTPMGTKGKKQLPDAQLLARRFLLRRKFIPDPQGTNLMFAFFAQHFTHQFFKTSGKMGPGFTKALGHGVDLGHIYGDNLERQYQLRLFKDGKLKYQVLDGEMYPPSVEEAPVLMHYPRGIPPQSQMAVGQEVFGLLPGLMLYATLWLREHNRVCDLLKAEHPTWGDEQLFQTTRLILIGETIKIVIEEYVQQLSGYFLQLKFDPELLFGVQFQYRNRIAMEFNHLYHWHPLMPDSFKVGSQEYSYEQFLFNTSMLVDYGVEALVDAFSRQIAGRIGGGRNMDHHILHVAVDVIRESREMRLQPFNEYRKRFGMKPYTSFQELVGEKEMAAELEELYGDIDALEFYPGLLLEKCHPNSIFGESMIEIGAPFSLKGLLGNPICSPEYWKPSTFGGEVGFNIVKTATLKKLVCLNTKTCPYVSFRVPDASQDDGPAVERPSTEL
Experimental: Assay of COX-1 Activity from U937 cell microsomes
U 937 cells are pelleted by centrifugation at 500 x g for 5 min and washed once with phosphate-buffered saline and repelleted. Cells are resuspended in homogenization buffer consisting of 0.1 M Tris-HCl, pH 7.4, 10 mM EDTA, 2 μg/ml leupeptin, 2 μg/ml soybean trypsin inhibitor, 2 μg/ml aprotinin and 1 mM phenyl methyl sulfonyl fluoride. The cell suspension is sonicated 4 times for 10 sec and is centrifuged at 10,000 x g for 10 min at 4° C. The supernatant is centrifuged at 100,000 x g for 1 hr at 4° C. The 100,000 x g microsomal pellet is resuspended in 0.1 M Tris-HCl, pH 7.4, 10 mM EDTA to approximately 7 mg protein/mil and stored at -80° C.
Microsomal preparations are thawed immediately prior to use, subjected to a brief sonication, and then diluted to a protein concentration of 125 μg/ml in 0.1 M Tris-HCl buffer, pH 7.4 containing 10 mM EDTA, 0.5 mM phenol, 1 mM reduced glutathione and 1 μM hematin. Assays are performed in duplicate in a final volume of 250 μl. Initially, 5 μl of DMSO vehicle or drug in DMSO are added to 20 μl of 0.1 M Tris-HCl buffer, pH 7.4 containing 10 mM EDTA in wells of a 96-deepwell polypropylene titre plate. 200 μl of the microsomal preparation are then added and pre-incubated for 15 min at room temperature before addition of 25 μl of […] arachidonic acid in […] Tris-HCl and 10 mM EDTA, pH 7.4. Samples are incubated for 40 min at room temperature and the reaction is stopped by the addition of 25 μl of 1 N HCl. Samples are neutralized with 25 μl of 1 N NaOH prior to quantitation of PGE2 content by radioimmunoassay (Dupont-NEN or Amersham assay kits). Cyclooxygenase activity is defined as the difference between PGE2 levels in samples incubated in the presence of arachidonic acid and ethanol vehicle.
Compounds of the present invention are inhibitors of COX-2 and are thereby useful in the treatment of COX-2 mediated diseases as enumerated above. The activities of the compounds against cyclooxygenase may be seen in the representative results shown below. In the assay, inhibition is determined by measuring the amount of prostaglandin E2 (PGE2) synthesized in the presence of arachidonic acid, COX-1 or COX-2 and a putative inhibitor. The IC50 values represent the concentration of putative inhibitor required to lower PGE2 synthesis to 50% of that obtained as compared to the uninhibited control.

COX-1 [2] = target: T1, COX-1; test: Human whole blood assay, COX-1 (clotting-induced TxB2 production); format: cell-based; design: platelets in whole blood contain a large amount of the COX-1 enzyme; from tissue; host or cells: fresh human whole blood without anticoagulant, platelets; details: clotting-induced TxB2, 1 hour at 37° C, read-out: HWB Cox-1 (IC50)
Experimental: Human whole blood provides a protein and cell-rich milieu appropriate for the study of biochemical efficacy of anti-inflammatory compounds such as selective COX-2 inhibitors. […] This is consistent with the observation that COX-2 inhibitors have no effect on PGE2 production in normal blood. These inhibitors are active only after incubation of human whole blood with LPS, which induces COX-2. This assay can be used to evaluate the inhibitory effect of selective COX-2 inhibitors on PGE2 production. As well, platelets in whole blood contain a large amount of the COX-1 enzyme. Immediately following blood clotting, platelets are activated through a thrombin-mediated mechanism. This reaction results in the production of thromboxane B2 (TXB2) via activation of COX-1. Thus, the effect of test compounds on TxB2 levels following blood clotting can be examined and used as an index for COX-1 activity. Therefore, the degree of selectivity by the test compound can be determined by measuring the levels of PGE2 after LPS induction (COX-2) and TxB2 following blood clotting (COX-1) in the same assay.
B. COX-1 (Clotting-induced TxB2 production)
Fresh blood is collected into vacutainers containing no anticoagulants. […] The tubes are vortexed and incubated at 37° C. for 1 hour to allow blood to clot. At the end of incubation, serum is obtained by centrifugation (12,000 x g for 5 min.). A 100 μL aliquot of serum is mixed with 400 μL of methanol for protein precipitation. The supernatant is obtained and is assayed for TxB2 using a enzyme immunoassay kit (Cayman, #519031) according to the manufacturer's instruction. […]

Row | pIC50 (COX-1 [1]) | pIC50 (COX-1 [2]) | SMILES
1 | 5.49 | 5.08 | CC[C@]1(C)OC(=O)C(c2ccc(F)cc2)=C1c1ccc(S(C)(=O)=O)cc1 [d, (5S)-5-ethyl-3-(4-fluorophenyl)-5-methyl-4-[4-(methylsulfonyl)phenyl]-2,5-dihydro-2-furanone]
2 | 5.24 | 4.06 | CC1(C)OC(=O)C(c2ccc(F)cc2)=C1c1ccc(S(C)(=O)=O)cc1 [Compound T3-1, 3-(4-fluorophenyl)-5,5-dimethyl-4-[4-(methylsulfonyl)phenyl]-2,5-dihydro-2-furanone, reference compound]
3 | 5.21 | 4.34 | CC[C@@]1(C)OC(=O)C(c2ccc(F)cc2)=C1c1ccc(S(C)(=O)=O)cc1 [e, (5R)-5-ethyl-3-(4-fluorophenyl)-5-methyl-4-[4-(methylsulfonyl)phenyl]-2,5-dihydro-2-furanone]
4 | < 5.00 | – | CCCC1(C)OC(=O)C(c2cccc(F)c2)=C1c1ccc(S(C)(=O)=O)cc1 (stereo not drawn) [o, 3-(3-fluorophenyl)-5-methyl-4-[4-(methylsulfonyl)phenyl]-5-propyl-2,5-dihydro-2-furanone]
5 | 4.87 | 4.33 | CC[C@]1(C)OC(=O)C(c2ccc(F)c(F)c2)=C1c1ccc(S(C)(=O)=O)cc1 [i, (5S)-3-(3,4-difluorophenyl)-5-ethyl-5-methyl-4-[4-(methylsulfonyl)phenyl] -2,5-dihydro-2-furanone]
6 | < 5.00 | < 4.05 | CCCC1(C)OC(=O)C(c2ccc(F)cc2)=C1c1ccc(S(C)(=O)=O)cc1 (stereo not drawn) [n, 3-(4-fluorophenyl)-5-methyl-4-[4-(methylsulfonyl)phenyl]-5-propyl-2,5-dihydro-2-furanone]
7 | < 5.00 | – | CCC1(CC)OC(=O)C(c2ccc(F)cc2)=C1c1ccc(S(C)(=O)=O)cc1 [u, 5,5-diethyl-3-(4-fluorophenyl)-4-[4-(methylsulfonyl)phenyl]-2,5-dihydro-2-furanone, reference compound]
8 | < 5.00 | – | CCCC1(C)OC(=O)C(c2ccc(F)c(F)c2)=C1c1ccc(S(C)(=O)=O)cc1 (stereo not drawn) [p, 3-(3,4-difluorophenyl)-5-methyl-4-[4-(methylsulfonyl)phenyl]-5-propyl-2,5-dihydro-2-furanone]
9 | 5.13 | < 4.52 | CCC1(C)OC(=O)C(c2ccc(F)cc2)=C1c1ccc(S(C)(=O)=O)cc1 (stereo not drawn) [c, 5-ethyl-3-(4-fluorophenyl)-5-methyl-4-[4-(methylsulfonyl)phenyl]-2,5-dihydro-2-furanone]
10 | < 5.00 | – | CCC1(CC)OC(=O)C(c2ccccc2)=C1c1ccc(S(C)(=O)=O)cc1 [t, 5,5-diethyl-4-[4-(methylsulfonyl)phenyl]-3-phenyl-2,5-dihydro-2-furanone, reference compound]
11 | 4.61 | 4.12 | CC[C@@]1(C)OC(=O)C(c2ccc(F)c(F)c2)=C1c1ccc(S(C)(=O)=O)cc1 [h, (5R)-3-(3,4-difluorophenyl)-5-ethyl-5-methyl-4-[4-(methylsulfonyl)phenyl] -2,5-dihydro-2-furanone]
